Where two headings read alike, the source gives them in different places.
What was measured:
Type in all cases: biochemical
hCDK1/B = hCDK1/B (Homo sapiens, UniProt P06493); test: hCDK1/B
CDK4 = CDK4 (Homo sapiens, UniProt P11802); test: CDK4 HTRF
CDK2 cyA = CDK2 cyA (Homo sapiens, UniProt P24941); test: CDK2 cyA IMAP
[1] = Table 2, read-out: CDK4 HTRF/ IC50
[2] = Table 2, read-out: CDK2cyA IMAP/ IC50
[3] = Table 1, read-out: CDK2 cyA IMAP

Chain of hCDK1/B (P06493 whole entry): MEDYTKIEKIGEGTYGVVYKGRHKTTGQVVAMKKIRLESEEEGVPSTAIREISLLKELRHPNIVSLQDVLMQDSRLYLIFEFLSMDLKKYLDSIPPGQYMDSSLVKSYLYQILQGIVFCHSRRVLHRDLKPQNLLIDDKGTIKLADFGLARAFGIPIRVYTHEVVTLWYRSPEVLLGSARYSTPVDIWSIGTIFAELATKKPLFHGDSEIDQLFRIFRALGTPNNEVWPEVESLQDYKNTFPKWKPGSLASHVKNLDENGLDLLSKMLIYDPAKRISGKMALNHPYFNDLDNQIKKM
Chain of hCDK1/B (P14635 whole entry partner): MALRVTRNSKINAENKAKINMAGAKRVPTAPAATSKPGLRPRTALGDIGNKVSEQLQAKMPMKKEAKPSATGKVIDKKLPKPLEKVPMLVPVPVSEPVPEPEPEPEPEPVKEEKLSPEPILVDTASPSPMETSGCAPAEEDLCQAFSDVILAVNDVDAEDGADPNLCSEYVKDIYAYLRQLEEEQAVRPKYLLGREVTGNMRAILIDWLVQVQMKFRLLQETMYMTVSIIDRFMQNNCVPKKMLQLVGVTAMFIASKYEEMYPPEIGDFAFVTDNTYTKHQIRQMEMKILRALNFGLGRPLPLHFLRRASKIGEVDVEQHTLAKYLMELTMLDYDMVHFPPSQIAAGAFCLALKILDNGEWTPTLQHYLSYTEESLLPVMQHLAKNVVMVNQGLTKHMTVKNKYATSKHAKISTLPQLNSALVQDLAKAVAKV
Chain of CDK4 (P11802 whole entry): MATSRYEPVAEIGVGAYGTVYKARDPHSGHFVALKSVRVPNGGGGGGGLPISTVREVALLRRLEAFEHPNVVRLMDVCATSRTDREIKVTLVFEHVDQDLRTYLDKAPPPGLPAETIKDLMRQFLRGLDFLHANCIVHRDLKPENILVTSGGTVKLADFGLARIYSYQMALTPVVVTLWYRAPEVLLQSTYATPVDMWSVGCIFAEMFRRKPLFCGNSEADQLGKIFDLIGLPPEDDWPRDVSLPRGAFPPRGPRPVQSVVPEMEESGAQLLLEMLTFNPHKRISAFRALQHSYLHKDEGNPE
Chain of CDK4 (P24385 whole entry partner): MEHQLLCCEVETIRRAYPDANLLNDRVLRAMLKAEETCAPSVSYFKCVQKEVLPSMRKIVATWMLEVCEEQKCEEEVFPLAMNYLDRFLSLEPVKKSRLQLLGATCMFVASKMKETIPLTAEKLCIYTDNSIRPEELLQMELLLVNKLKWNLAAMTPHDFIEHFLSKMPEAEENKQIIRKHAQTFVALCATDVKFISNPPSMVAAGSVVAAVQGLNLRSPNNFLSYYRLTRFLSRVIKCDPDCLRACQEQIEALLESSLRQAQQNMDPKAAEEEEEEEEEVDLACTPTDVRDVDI

Structure (SMILES)	IC50 (hCDK1/B; Table 2) [µM]	IC50 (CDK4; [1]) [µM]	IC50 (CDK2 cyA; [2]) [µM]	IC50 (hCDK1/B; Table 1) [µM]	IC50 (CDK4; Table 1, read-out: CDK4 HTRF) [µM]	IC50 (CDK2 cyA; [3]) [µM]
CC(C)c1n[nH]cc1-c1ccnc(NCc2c(F)cccc2F)n1 [Example 157]	< 1	< 1	< 5			
Cc1n[nH]cc1-c1ccnc(NC2CCCCCC2)n1 [Example 87]	< 5	< 1	< 5			
CCC(C)Nc1cc(-c2cn[nH]c2C(C)C)ccn1 (stereo not drawn) [Example 26]				< 5	< 0.5	< 1
CC(C)c1[nH]ncc1-c1ccnc(NCc2cc(F)cc(F)c2)c1 [Example 38]				< 5	< 1	< 5
Cc1n[nH]cc1-c1ccnc(NC2CCc3ccccc32)n1 (stereo not drawn) [Example 112]	< 10	< 0.5	< 10			
COCC(C)Nc1nccc(-c2c[nH]nc2C(C)C)n1 (stereo not drawn) [Example 152]	< 1	< 0.5	< 1			
CC(C)c1n[nH]cc1-c1nc(NC2CCN(C)CC2)ncc1Br [Example 180]	< 5	< 1	< 5			
Cc1n[nH]cc1-c1ccnc(NC2CCN(c3ccccc3)CC2)n1 [Example 136]	< 5	< 0.5	< 5			
c1cc(-c2cn[nH]c2C2CCCC2)cc(NC2CCCCCC2)n1 [Example 55]				< 5	< 0.5	< 1
CC(C)c1[nH]ncc1-c1ccnc(NCc2ccco2)c1 [Example 24]				< 5	< 1	< 5
CC(C)c1n[nH]cc1-c1ccnc(N[C@@H](C)c2ccccc2)n1 [Example 182]	< 5	< 10	< 10			
Cc1n[nH]cc1-c1ccnc(NC2CCCC2)n1 [Example 86]	< 5	< 1	< 5			
c1cncc(CCNc2cc(-c3cn[nH]c3C3CCCC3)ccn2)c1 [Example 59]				< 5	< 0.5	< 5
Cc1n[nH]cc1-c1ccnc(NC2CCCCC2)n1 [Example 84]	< 5	< 1	< 5			
c1ccc(CCNc2cc(-c3cn[nH]c3C3CCCC3)ccn2)cc1 [Example 58]				< 5	< 0.5	< 5
CC(C)c1n[nH]cc1-c1ccnc(NCc2ccccc2F)n1 [Example 165]	< 0.5	< 1	< 0.5			
CC(C)c1[nH]ncc1-c1ccnc(NCc2ccccc2)c1 [Example 4]				< 5	< 1	< 5

Structure (SMILES)	IC50 (hCDK1/B; Table 2) [µM]	IC50 (CDK4; [1]) [µM]	IC50 (CDK2 cyA; [2]) [µM]	IC50 (hCDK1/B; Table 1) [µM]	IC50 (CDK4; Table 1, read-out: CDK4 HTRF) [µM]	IC50 (CDK2 cyA; [3]) [µM]
CC(C)c1[nH]ncc1-c1ccnc(NC(CO)C(C)C)c1 (stereo not drawn) [Example 46]				< 10	< 0.5	< 15
CC(C)COCCCNc1nccc(-c2c[nH]nc2C(C)C)n1 [Example 150]	< 1	< 0.5	< 5			
Cc1nnc(CCNc2nccc(-c3c[nH]nc3C(C)C)n2)[nH]1 [Example 161]	< 5	< 0.5	< 5			
CC(C)c1n[nH]cc1-c1ccnc(NCCCNC2CCCCC2)n1 [Example 148]	< 15	< 5	< 10			
Cc1n[nH]cc1-c1ccnc(NCCc2cccnc2)n1 [Example 132]	< 10	< 1	< 10			
CCCNc1cc(-c2cn[nH]c2C(C)C)ccn1 [Example 44]				< 5	< 0.5	< 5
Cc1n[nH]cc1-c1ccnc(NC2CCN(Cc3ccccc3)C2)n1 (stereo not drawn) [Example 114]	< 10	< 1	< 10			
CC(C)c1[nH]ncc1-c1ccnc(NC2CCCCCC2)c1 [Example 40]				< 1	< 0.5	< 0.5
Cc1n[nH]cc1-c1ccnc(NC2Cc3ccccc3C2)n1 [Example 125]	< 5	< 0.5	< 5			
CCC(CC)c1[nH]ncc1-c1ccnc(NC2CCN(C(=O)OC(C)(C)C)CC2)c1 [Example 72]				< 1	< 1	< 5
CC(C)c1[nH]ncc1-c1ccnc(NC2CC2)c1 [Example 39]				< 5	< 0.5	< 1
CC(C)c1n[nH]cc1-c1ccnc(NC(C)c2ccccc2)n1 (stereo not drawn) [Example 168]	< 1	< 0.05	< 5			
c1cc(-c2cn[nH]c2C2CCCC2)cc(NCC2CC2)n1 [Example 57]				< 5	< 1	< 5
CCC(CC)c1[nH]ncc1-c1ccnc(NC2CCc3ccccc32)c1 (stereo not drawn) [Example 74]				< 5	< 5	< 5
CCCCNc1cc(-c2cn[nH]c2C(C)C)ccn1 [Example 10]				< 5	< 0.5	< 5
CCC(C)c1[nH]ncc1-c1ccnc(NCc2ccccc2C)c1 (stereo not drawn) [Example 81]				< 5	< 1	< 5

From US8367687B2, “Pyrazole derivatives” (Novartis AG, priority 2007, dated 2013)
